Data from patent US4866055A, “Cephalosporin derivatives and their crystalline derivatives” (Mochida Pharmaceutical Co., Ltd., priority 1986, dated 1989).
Converted amounts (≈) assume the structure as drawn. Read-outs that look alike come from different tables or passages of the source.

Tests used:
Solubility = type: physicochemical; conditions: trisodium salt, amorphous solid; for parenteral use
Stability (storage) = type: physicochemical
Escherichia coli 67 = assay: Protection against systemic infection in mice; type: in vivo, ICR mice; conditions: iv, 168 h, i.p. infection, i.v. compound 1 hour after infection, survival at 1 week
Experimental: (§1) Protection ability against systemic infection was determined as follows. An aqueous suspension of test bacteria was intraperitoneally injected into 10 four week old ICR mice. One hour after the infection, test compounds were intravenously administered. The number of surviving mice was counted 1 week after injection to determine the dose at which 50% of the test animals were alive (ED50 : mg/kg).

Serratia marcescens 274 = assay: Protection against systemic infection in mice; type: in vivo, ICR mice; conditions: 168 h
Experimental: as §1

[1] = tested on: Klebsiella pneumoniae IFO 3317; assay: Protection against systemic infection in mice; type: in vivo, ICR mice; conditions: for ED50: IFO3317, iv, 168 h
Experimental: as §1

[2] = tested on: Proteus mirabilis IFO 3849; assay: Protection against systemic infection in mice; type: in vivo, ICR mice; conditions: IFO3849, iv, 168 h
Experimental: as §1

[3] = tested on: Pseudomonas aeruginosa 13; assay: Protection against systemic infection in mice; type: in vivo, ICR mice; conditions: for ED50: 168 h
Experimental: as §1

[4] = tested on: Staphylococcus aureus 242; assay: Protection against systemic infection in mice; type: in vivo, ICR mice; conditions: 168 h
Experimental: as §1

[5] = tested on: Serratia marcescens IFO 3759; assay: Antibacterial activity in vitro, agar plate dilution method (MIC); type: cell-based
Experimental: (§2) Antibacterial activity in vitro was determined in accordance with the agar plate dilution method.
(§3) A platinum loop each of test bacteria (10^6 cells/ml), cultured in Mueller Hinton broth, was inoculated on Mueller Hinton agar plates which contained test compounds at various concentrations. After cultivating at 37° C. for 20 hours, the minimum inhibitory concentration (MIC μg/ml) was determined.

[6] = tested on: Klebsiella pneumoniae IFO 3317; assay: as above; type: cell-based
Experimental: as §2, §3

[7] = tested on: Pseudomonas aeruginosa 13; assay: as above; type: cell-based
Experimental: as §2, §3

[8] = tested on: Escherichia coli NIHJ JC 2; assay: as above; type: cell-based; conditions: NIHJJC2, 37° C., 20 hours, Mueller Hinton agar
Experimental: as §2, §3

[9] = tested on: Proteus morganii IFO 3848; assay: as above; type: cell-based; conditions: Morganella morganii
Experimental: as §2, §3

[10] = Acute toxicity, LD50 by the Probit method; conditions: in vivo, iv
Experimental: Next, LD50 of representative examples of the compounds of the present invention is shown in Table 3 herein LD50 was determined in accordance with the Probit method.

experimental infection = assay: Protection of animals from experimental infection (overall); type: in vivo, ICR mice; conditions: Tables 2-a through 2-b, vs reference compound
Experimental: as §1

[11] = tested on: bacterial strains except Pseudomonas aeruginosa; assay: Antibacterial activity in vitro, agar plate dilution method, all strains except Pseudomonas aeruginosa; type: cell-based; conditions: Tables 1-a through 1-b
Experimental: as §2, §3

[12] = tested on: Staphylococcus aureus Smith; assay: Antibacterial activity in vitro, agar plate dilution method (MIC); type: cell-based; conditions: 37° C., 20 hours, Mueller Hinton agar
Experimental: as §2, §3

[13] = iv, Staphylococcus aureus 242, i.p. infection, i.v. compound 1 hour after infection, survival at 1 week, read-out: ED50
[14] = iv, Serratia marcescens 274, i.p. infection, i.v. compound 1 hour after infection, survival at 1 week, read-out: ED50
[15] = Klebsiella pneumoniae IFO 3317, i.p. infection, i.v. compound 1 hour after infection, survival at 1 week, read-out: ED50
[16] = Proteus mirabilis IFO 3849, i.p. infection, i.v. compound 1 hour after infection, survival at 1 week, read-out: ED50
[17] = iv, Pseudomonas aeruginosa 13, i.p. infection, i.v. compound 1 hour after infection, survival at 1 week, read-out: ED50
[18] = IFO3759, Serratia marcescens IFO 3759, 37° C., 20 hours, Mueller Hinton agar, read-out: MIC
[19] = IFO3317, Klebsiella pneumoniae IFO 3317, 37° C., 20 hours, Mueller Hinton agar, read-out: MIC
[20] = Pseudomonas aeruginosa 13, 37° C., 20 hours, Mueller Hinton agar, read-out: MIC
[21] = IFO3848, Proteus morganii IFO 3848, 37° C., 20 hours, Mueller Hinton agar, read-out: MIC

Row | SMILES | ED50 (Escherichia coli 67) | MIC [8] | LD50 [10] | ED50 [4, 13] | ED50 (Serratia marcescens 274; [14]) | ED50 [1, 15] | ED50 [2, 16] | ED50 [3, 17] | MIC [5, 18] | MIC [6, 19] | MIC [7, 20] | MIC [12] | MIC [9, 21] | also measured
1 | Cc1cc(SCC2=C(C(=O)[O-])N3C(=O)[C@@H](NC(=O)/C(=N\OCc4cc(O)c(O)cc4C(=O)[O-])c4csc(N)n4)[C@H]3SC2)n2nc(C(=O)[O-])nc2n1.[Na+].[Na+].[Na+] |  |  |  |  |  |  |  |  |  |  |  |  |  | solubility (Solubility): excellent solubility; stability (Stability (storage); as bulk materials or as parenteral preparations): not necessarily sufficient
2 | CC(C)(O/N=C(\C(=O)N[C@@H]1C(=O)N2C(C(=O)[O-])=C(C[n+]3ccccc3)CS[C@H]12)c1csc(N)n1)C(=O)O [CAZ, Ceftazidime] | 6.48 mg/kg | 0.2 µg/mL (≈ 0.366 µM) | > 4000 mg/kg |  |  |  |  |  |  |  |  |  |  | ED50 (Serratia marcescens 274; Serratia marcescens, 274, iv): 3.62 mg/kg; ED50 ([1]; Klebsiella pneumoniae): 10.6 mg/kg; ED50 ([2]; Proteus mirabilis): 4.36 mg/kg; ED50 ([3]; Pseudomonas aeruginosa, 13, iv): 145 mg/kg; ED50 ([4]; Staphylococcus aureus, 242, iv): > 100 mg/kg; MIC ([5]; Serratia marcescens, IFO3759, 20 h): ≤ 0.05 µg/mL; MIC ([6]; Klebsiella pneumoniae, IFO3317, 20 h): ≤ 0.05 µg/mL; MIC ([7]; Pseudomonas aeruginosa, 13, 20 h): 1.56 µg/mL (≈ 2.85 µM); MIC ([9]; IFO3848, 20 h): 0.2 µg/mL (≈ 0.366 µM)
3 | Cn1nnnc1SCC1=C(C(=O)O)N2C(=O)[C@@H](NC(=O)[C@H](O)c3ccccc3)[C@H]2SC1 [CMD, Cefamandole] |  |  |  | 8.94 mg/kg |  |  |  |  |  |  |  |  |  | 
4 | Cc1cc(SCC2=C(C(=O)O)N3C(=O)[C@@H](NC(=O)/C(=N\OCc4cc(O)c(O)cc4C(=O)O)c4csc(N)n4)[C@H]3SC2)n2nc(C(=O)O)nc2n1 [Compound 1, (6R,7R)-7-[2-(2-amino-4-thiazolyl)-2-[Z-[(2-carboxy-4,5-dihydroxyphenyl)methyl]oxyimino]acetamido]-3-[(2-carboxy-5-methyl-s-triazolo[1,5-a]pyrimidin-7-yl)thiomethyl]-8-oxo-5-thia-1-azabicyclo[4.2.0]-oct-2-ene-2-carboxylic acid] | 1.05 mg/kg | 0.39 µg/mL (≈ 0.515 µM) | > 4000 mg/kg | 7.68 mg/kg | 0.77 mg/kg | 0.27 mg/kg | 5.07 mg/kg | 61.8 mg/kg | 0.1 µg/mL (≈ 0.132 µM) | ≤ 0.05 µg/mL | 0.1 µg/mL (≈ 0.132 µM) | 1.56 µg/mL (≈ 2.06 µM) | 0.39 µg/mL (≈ 0.515 µM) | potency in protecting the animals from experimental infection relative to the reference compound (experimental infection): evidently more potent than the reference compound; potency relative to the reference compound in vitro [11]: about equipotent to the reference compound; times as potent as the reference compound ([1]; infection with Klebsiella pneumoniae, vs reference compound): more than 10 times; times as potent as the reference compound ([3]; infection with Pseudomonas aeruginosa, vs reference compound): more than 10 times; times as potent as Ceftazidime ([7]; MIC, Pseudomonas aeruginosa, vs Ceftazidime): more than 10 times; times as potent as the reference compound ([7]; MIC, Pseudomonas aeruginosa, vs reference compound): more than 10 times
5 | CC(=O)Oc1cc(C(=O)O)c(CO/N=C(\C(=O)N[C@@H]2C(=O)N3C(C(=O)O)=C(CSc4cc(C)nc5nc(C(=O)O)nn45)CS[C@H]23)c2csc(N)n2)cc1O [Reference compound, (6R,7R)-7-[2-(2-amino-4-thiazolyl)-2-[Z-[(4-acetoxy-2-carboxy-5-hydroxyphenyl)methy]oxyimino]acetamido]-3-[(2-caboxy-5-methyl-s-triazolo[1,5-a]pyrimidin-7-yl)thiomethyl]-8-oxo-5-thia-1-azabicyclo[4.2.0]oct-2-ene-2-carboxylicacid] | 7.66 mg/kg | 0.39 µg/mL (≈ 0.488 µM) |  | 12.4 mg/kg | 2.56 mg/kg | 3.58 mg/kg | 20.1 mg/kg | > 500 mg/kg | ≤ 0.05 µg/mL | ≤ 0.05 µg/mL | 1.56 µg/mL (≈ 1.95 µM) | 1.56 µg/mL (≈ 1.95 µM) | 0.2 µg/mL (≈ 0.25 µM) | 
6 | Cc1cc(SCC2=C(C(=O)O)N3C(=O)[C@@H](NC(=O)/C(=N\OCc4cc(O)c(O)cc4C(=O)O)c4csc(N)n4)[C@H]3SC2)n2nc(C(=O)O)nc2n1 [crystalline hydrated compound, crystalline hydrated (6R,7R)-7-[2-(2-amino-4-thiazol-yl)-2-[Z-[(2-carboxy-4,5-dihydroxyphenyl)methyl]oxyimino]acetamido]-3-[(2-carboxy-5-methyl-s-triazolo[1,5-a]pyrimidin-7-yl)thiomethyl]-8-oxo-5-thia-1-azabicyclo[4.2.0]oct-2-ene-2-carboxylic acid] |  |  |  |  |  |  |  |  |  |  |  |  |  | stability on storage (Stability (storage); crystalline hydrate): increased stability on storage
